These results are taken from US20130196927A1, “Smac Mimetic Therapy” (priority 2012, published 2013).

The test has as its target T1, GFP-tagged cIAP-2 (Homo sapiens, UniProt Q13489).
T1 construct: expressed in transfected cells
In words: GFP-tagged cIAP-2 degradation assay (loss of GFP signal). The test is classed as cell-based. Conditions: GFP-cIAP expressing melanoma cell line A375, treatment for two hours; read-out: IC50 for GFP-tagged cIAP-2 degradation. From the text: To evaluate the Smac-mimetic activity in cancer cell lines, we have developed intra-cellular green fluorescence protein (GFP)-tagged cIAP-1 and GFP-tagged cIAP-2 assays. […].

T1 sequence (Q13489 whole entry): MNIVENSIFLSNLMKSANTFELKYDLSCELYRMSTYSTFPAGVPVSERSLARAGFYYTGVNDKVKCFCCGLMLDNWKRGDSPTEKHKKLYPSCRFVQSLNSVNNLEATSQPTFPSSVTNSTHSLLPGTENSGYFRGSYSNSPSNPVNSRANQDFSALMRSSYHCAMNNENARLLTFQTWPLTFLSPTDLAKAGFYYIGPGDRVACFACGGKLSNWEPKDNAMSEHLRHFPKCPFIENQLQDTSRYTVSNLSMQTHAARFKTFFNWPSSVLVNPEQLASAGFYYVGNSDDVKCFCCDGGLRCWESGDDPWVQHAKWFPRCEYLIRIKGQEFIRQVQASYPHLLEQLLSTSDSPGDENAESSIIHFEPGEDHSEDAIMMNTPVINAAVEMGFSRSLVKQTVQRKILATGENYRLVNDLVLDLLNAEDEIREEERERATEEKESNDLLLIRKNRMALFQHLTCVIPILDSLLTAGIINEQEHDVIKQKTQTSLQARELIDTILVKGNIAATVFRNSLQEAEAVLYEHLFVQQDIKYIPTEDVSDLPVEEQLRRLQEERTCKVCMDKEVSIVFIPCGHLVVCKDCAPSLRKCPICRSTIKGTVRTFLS

With `CC[C@H](NC(=O)[C@H](C)NC)C(=O)N1C[C@@H](O)C[C@H]1Cc1c(-c2[nH]c3cc(F)ccc3c2C[C@@H]2C[C@H](O)CN2C(=O)[C@H](CC)NC(=O)[C@H](C)NC)[nH]c2cc(F)ccc12` [Compound 15, birinapant], the DC50 was 0.15 µM.
